Experimental findings from US20210030895A1, “RESIN COMPOSITION AND MOLDED ARTICLE” (DIC Corporation, priority 2013, published 2021) are described below.

Each structure is given as a SMILES string. Several values for one entry are separate records, joined by “and”; a condition that tells them apart may be missing. Equal entries are not always repeated. Entries after “also recorded” stand apart in the source; their conditions may differ. Where two headings read alike, the source gives them in different places.

What all share (format): physicochemical
Data set [1] can be described thus: Eluting test of the material from the material-containing film (ISO10993-10 Annex E, methanol extraction). The method, then: In Example 1, the operation was performed in the same manner as in Example 1 except that 100 mg of the near infrared fluorescent material A was used, a material-containing TPU film having a thickness of about 300 μm and having a material concentration of the near infrared fluorescent material A of 0.1% by mass was prepared.
An Eluting test of the obtained material-containing TPU film was performed. The eluting operation of the film was performed as follows according to ISO10993-10AnnexE. 5 g of the material-containing TPU film was cut into a size of 2 cm×2 cm, and then was put into a 300 mL conical flask with 100 mL of methanol, followed by shaking at 25° C. of room temperature for 8 hours. Next, the methanol was separated by filtration once, and the resultant product was extracted two times with the same amount of methanol by using the same film fine piece. The methanol extracted liquid obtained by the total three times of operations was concentrated by an evaporator, and the residues were melted with 5 mL of dichloromethane to obtain a test liquid.
The absorption spectrum and the light emission spectrum of the obtained test liquid were measured. As a result, the absorption and the fluorescent derived from the near infrared fluorescent material A could not be confirmed. […] Since the near infrared fluorescent material A was hardly eluted, a medical implant having high safeness which is molded using the resin composition according to the present invention was obtained.

Data set [2] in a line: Absorption spectrum of material-containing resin film (spectrophotometer UV3600). The method, then: TPU pellets (Tecoflex EG85A, manufactured by Lubrizol Corp.) (100 g) and a near infrared fluorescent material A (5 mg) synthesized in Preparation Example 1 were mixed, and the mixture was attached to the pellet surfaces.
Next, the pellets were put into Labo Plastomill, and melt-kneaded (kneading) at a set temperature of 190° C. for 10 minutes. Thereafter, the kneaded material-containing resin was taken out, and made to be a film.
The film was obtained in the following manner. First, the material-containing resin was heated for 5 minutes while being sandwiched between iron plates heated to 200° C., and pressed at […] while the steel plates were cooled. […]

A short description of data set [3]: Emission (fluorescence) spectrum and fluorescence quantum yield of material-containing resin film (Quantaurus-QY C11347).
Data set [4] is described as follows: Absorption spectrum of material-containing resin film (spectrophotometer UV3600). Particulars: PP film, material 10 mg per 100 g PP (Example 2).
Where [5] appears, read: TPU film, material 0.1% by mass, about 300 μm, methanol, 25° C., 8 hours, three extractions.
The mark [6] stands for this setting: methanol extract of TPU film, residues in dichloromethane.
The mark [7] stands for this setting: TPU film, material 5 mg per 100 g TPU (0.005% by mass), melt-kneaded at 190° C.
The mark [8] stands for this setting: PP film, material 10 mg per 100 g PP (Example 2).

`CCN1/C(=C\C=C2/CCC(/C=C/c3sc4ccc(Cl)cc4[n+]3CC)=C2N(c2ccccc2)c2ccccc2)Sc2ccc(Cl)cc21` [IR-140, reference compound]: the “Presence or absence of material elution” value in data set [1] (setting [5]) is on record as “eluted; also recorded: Presence”; in data set [1] (TPU film, material 0.1% by mass, about 300 μm, methanol, 25° C., 8 hours, three extractions, listed as Comparative Example 1), “elutes”. Also, the “light emission peak wavelength of the fluorescence spectrum in the test liquid of the eluting test” value in data set [1] (setting [6]) is listed as 846 nm. For the same compound, the “peak wavelength of the absorption spectrum in the test liquid of the eluting test” value in data set [1] (setting [6]) was 812 nm.
Take `F[B-]1(F)n2c(cc3sc(-c4cccs4)cc32)C(C(F)(F)F)=C2C=c3sc(-c4cccs4)cc3=[N+]21` [near infrared fluorescent material E]: in data set [1] (setting [5]), the “Presence or absence of material elution” value is listed as “not eluted; also recorded: Absence”. The compound also returned an Absorption peak in data set [2] (setting [7]) of 741 nm. In data set [3] (setting [7]), this compound registered a Fluorescence peak of 772 nm and a Quantum yield of 11%.
Take `COc1ccc(-c2cc3c(s2)=CC2=C(C(F)(F)F)c4cc5sc(-c6ccc(OC)cc6)cc5n4[B-](F)(F)[N+]=32)cc1` [near infrared fluorescent material D]: in data set [1], the “Presence or absence of material elution” value is listed as “not eluted; also recorded: Absence”. In data set [2], this compound had an Absorption peak of 737 nm. In addition, in data set [3], the Fluorescence peak was 765 nm and the Quantum yield is on record as 17%.
In the case of `CCCCCCCCOc1ccc(-c2c3c4n(c(-c5ccc(OCCCCCCCC)cc5)c3c3n2[B-](F)(F)[n+]2c(sc5cc(C(C)(C)C)ccc52)C=3C#N)[B-](F)(F)[n+]2c(sc3cc(C(C)(C)C)ccc32)C=4C#N)cc1` [near infrared fluorescent material B], the “Presence or absence of material elution” value in data set [1] was “not eluted; also recorded: Absence”. Further, in data set [2], the Absorption peak was 739 nm and 738 nm and 737 nm and 736 nm. For the same compound, in data set [3], the Fluorescence peak was 758 nm and 833 nm and 756 nm and 834 nm and 753 nm and 754 am nm and 751 nm and 825 nm; the Quantum yield was 36% and 34% and 39% and 46%.
With `CCCCCCCCOc1ccc(-c2c3c4n(c(-c5ccc(OCCCCCCCC)cc5)c3c3n2[B-](c2ccccc2)(c2ccccc2)[n+]2c(C)cc(C)nc2C=3C#N)[B-](c2ccccc2)(c2ccccc2)[n+]2c(C)cc(C)nc2C=4C#N)cc1` [near infrared fluorescent material G], the “Presence or absence of material elution” value in data set [1] is “not eluted; also recorded: Absence”. The compound further had an Absorption peak in data set [2] of 756 nm. In data set [3], the Fluorescence peak was 778 nm and 870 nm; the Quantum yield came to 35%.
Consider `CCCCC(CC)COc1ccc(-c2c3c4n(c(-c5ccc(OCC(CC)CCCC)cc5)c3c3n2[B-](c2ccccc2)(c2ccccc2)[n+]2c(oc5ccc(C(C)(C)C)cc52)C=3C#N)[B-](c2ccccc2)(c2ccccc2)[n+]2c(oc3ccc(C(C)(C)C)cc32)C=4C#N)cc1` (stereo not shown) [near infrared fluorescent material H], for which the “Presence or absence of material elution” value in data set [1] was “not eluted; also recorded: Absence”. The same compound registered an Absorption peak in data set [2] of 744 nm. Further, in data set [3], the Fluorescence peak was 787 nm and 865 nm; the Quantum yield came out at 36%.
Turning to `CCCCCCCCOc1ccc(-c2c3c4n(c(-c5ccc(OCCCCCCCC)cc5)c3c3n2[B-](F)(F)[n+]2c(ccc5cc(C(C)(C)C)ccc52)C=3C#N)[B-](F)(F)[n+]2c(ccc3cc(C(C)(C)C)ccc32)C=4C#N)cc1` [near infrared fluorescent material F], the “Presence or absence of material elution” value in data set [1] is listed as “not eluted; also recorded: Absence”. The Absorption peak in data set [2] was 764 nm and 767 nm. For the same compound, in data set [3], the Fluorescence peak was 774 nm and 870 nm; the Quantum yield came out at 35%.
On to `COc1ccc(-c2cc3c(o2)=CC2=C(C(F)(F)F)c4cc5oc(-c6ccc(OC)cc6)cc5n4[B-](F)(F)[N+]=32)cc1` [near infrared fluorescent material A], for which the “Presence or absence of material elution” value in data set [1] (setting [5]) was “hardly eluted; also recorded: Absence”. Further, the Absorption peak in data set [2] (setting [7]) and in data set [4] was 730 nm in each case. For the same compound, the Fluorescence peak in data set [3] (setting [8]) turned out to be 810 nm. Moreover, the figures for the Quantum yield in data set [3] (setting [8]) and in data set [3] (setting [7]) were 24% and 26%, respectively.
